Source: patent publication US12600726B2, “Antagonists of the muscarinic acetylcholine receptor M4” (Vanderbilt University, priority 2017, dated 2026)
pIC50: −log10 of the molar value.

Key:
Human M4 = biological target: T1, Human M4 (Homo sapiens, UniProt P08173); test: mAChR M4 cell-based functional calcium flux assay (human M4/Gqi5/CHO cells); conditions: for Emin (human M4): % ACh maximum at 30 μM; for pIC50: decrease of the response to an EC80 concentration of acetylcholine
T1 construct: expressed in transfected cells; host or cells: CHO-K1 (ATCC), stably expressing M4 and Gqi5
T1 sequence (P08173 1-479): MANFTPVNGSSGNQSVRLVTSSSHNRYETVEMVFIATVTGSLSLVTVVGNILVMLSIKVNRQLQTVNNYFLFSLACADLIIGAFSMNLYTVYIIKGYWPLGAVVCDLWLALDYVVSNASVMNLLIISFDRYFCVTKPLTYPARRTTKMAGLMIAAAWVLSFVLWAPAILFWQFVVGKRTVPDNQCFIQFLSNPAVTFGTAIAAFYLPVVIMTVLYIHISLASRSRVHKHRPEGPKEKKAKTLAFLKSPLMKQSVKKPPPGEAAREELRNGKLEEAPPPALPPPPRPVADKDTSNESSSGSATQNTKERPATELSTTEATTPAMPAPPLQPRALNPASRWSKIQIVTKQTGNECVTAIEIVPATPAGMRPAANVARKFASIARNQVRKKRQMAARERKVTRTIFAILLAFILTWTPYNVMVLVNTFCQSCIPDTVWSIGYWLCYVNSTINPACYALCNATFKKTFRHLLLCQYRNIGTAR
Method: (§1) Human, rat, or mouse M4. cDNA, along with the chimeric G protein Gqi5, were transfected into Chinese hamster ovary (CHO-K1) cells purchased from the American Type Culture Collection using Lipofectamine2000. M4/Gqi5/CHO cells were grown in Ham's F-12 medium containing 10% heat-inactivated fetal bovine serum (FBS), 20 mM HEPES, 500 μg/mL G418 sulfate, and 200 μg/mL Hygromycin B.
(§2) For high throughput measurement of agonist-evoked increases in intracellular calcium, CHO-K1 cells stably expressing muscarinic receptors were plated in growth medium lacking G418 and hygromycin at 15,000 cells/20 μL/well in Greiner 384-well black-walled, tissue culture (TC)-treated, clear-bottom plates (VWR). Cells were incubated overnight at 37° C. and 5% CO2. The next day, cells were washed using an ELX 405 (BioTek) with assay buffer; the final volume was then aspirated to 20 μL. Next, 20 μL of a 2.3 μM stock of Fluo-4/acetoxymethyl ester (Invitrogen, Carlsbad, CA), prepared as a 2.3 mM stock in DMSO and mixed in a 1:1 ratio with 10% (w/v) Pluronic F-127 and diluted in assay buffer, was added to the wells and the cell plates were incubated for 50 min at 37° C. and 5% CO2. Dye was removed by washing with the ELX 405 and the final volume was aspirated to 20 μL. Compound master plates were formatted in a 10 point concentration-response curve (CRC) format (1:3 dilutions) in 100% DMSO with a starting concentration of 10 or 1 mM using a BRAVO liquid handler (Agilent). Test compound CRCs were then transferred to daughter plates (240 nL) using the Echo acoustic plate reformatter (Labcyte, Sunnyvale, CA) and then diluted into assay buffer (40 μL) to a 2× stock using a Thermo Fisher Combi (Thermo Fisher Scientific, Waltham, MA).
(§3) Calcium flux was measured using the Functional Drug Screening System (FDSS) 6000 or 7000 (Hamamatsu Corporation, Tokyo, Japan) as an increase in the fluorescent static ratio. Compounds were applied to cells (20 μL, 2×) using the automated system of the FDSS at 2 seconds into the protocol and the data were collected at 1 Hz. At 143 s, 10 μL of an EC20 concentration of the muscarinic receptor agonist acetylcholine was added (5×), followed by the addition of 12 μL of an EC80 concentration of acetylcholine at the 268 s time point (5×). Agonist activity was analyzed as a concentration-dependent increase in calcium mobilization upon compound addition. Positive allosteric modulator activity was analyzed as a concentration-dependent increase in the EC20 acetylcholine response. Antagonist activity was analyzed as a concentration-dependent decrease in the EC80 acetylcholine response; for the purposes of the tables herein, an IC50 (inhibitory concentration 50) was calculated as a concentration-dependent decrease of the response elicited by an EC80 concentration of acetylcholine. Concentration-response curves were generated using a four-parameter logistical equation in XLFit curve fitting software (IDBS, Bridgewater, NJ) for Excel (Microsoft, Redmond, WA) or Prism (GraphPad Software, Inc., San Diego, CA) or the Dotmatics software platform (Dotmatics, Bishop's Stortford, UK).
(§4) Compounds were synthesized as described above. Activity (IC50 and Emin) was determined in the mAChR M4 cell-based functional assay as described above and the data are shown in Table 2 and Table 3. The compound number corresponds to the compound numbers used in the examples and Tables 1 and 1.1.

Rat M4 = biological target: T2, Rat M4 (Rattus norvegicus, UniProt P08485); test: mAChR M4 cell-based functional calcium flux assay (rat M4/Gqi5/CHO cells); conditions: for Emin (rat M4): % ACh maximum at 30 μM; for pIC50: decrease of the response to an EC80 concentration of acetylcholine
T2 construct: expressed in transfected cells; host or cells: CHO-K1 (ATCC), stably expressing M4 and Gqi5
T2 sequence (P08485 1-478): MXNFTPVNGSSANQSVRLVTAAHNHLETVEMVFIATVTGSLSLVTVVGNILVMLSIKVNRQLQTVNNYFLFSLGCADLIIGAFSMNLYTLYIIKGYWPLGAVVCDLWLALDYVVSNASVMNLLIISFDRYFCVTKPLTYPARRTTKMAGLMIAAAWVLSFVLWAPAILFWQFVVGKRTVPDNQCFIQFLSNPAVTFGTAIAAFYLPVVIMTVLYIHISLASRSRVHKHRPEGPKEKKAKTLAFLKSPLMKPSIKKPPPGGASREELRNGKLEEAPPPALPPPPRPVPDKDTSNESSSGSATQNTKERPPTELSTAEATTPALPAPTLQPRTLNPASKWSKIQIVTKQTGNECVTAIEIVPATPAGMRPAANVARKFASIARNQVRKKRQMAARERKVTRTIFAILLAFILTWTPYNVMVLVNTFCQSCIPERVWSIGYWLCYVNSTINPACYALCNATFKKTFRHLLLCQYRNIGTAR
Method: as §1, §2, §3, §4

Fc1ccc(Cl)c(-c2ccc(NC[C@@H]3CC34CCN(Cc3ccccc3)CC4)nn2)c1 [Compound 112, N-[[(2R)-6-benzyl-6-azaspiro[2.5]octan-2-yl]methyl]-6-(2-chloro-5-fluoro-phenyl)pyridazin-3-amine]
Emin (human M4) (Human M4): 2%
pIC50 (Human M4): 6.90

Cc1ccc(/C=C/c2ccc(NCC3CC34CCN(CCC(C)(C)C)CC4)nn2)cc1 (centres unmarked) [Compound 92, N-[[6-(3,3-dimethylbutyl)-6-azaspiro[2.5]octan-2-yl]methyl]-6-[(E)-2-(p-tolyl)vinyl]pyridazin-3-amine]
Emin (rat M4) (Rat M4): 4%
pIC50 (Rat M4): 6.00

Cc1nn(C)cc1-c1nnc(NCC2CC23CCN(CCC(C)(C)C)CC3)c2ccccc12 (centres unmarked) [Compound 95, N-[[6-(3,3-dimethylbutyl)-6-azaspiro[2.5]octan-2-yl]methyl]-4-(1,3-dimethylpyrazol-4-yl)phthalazin-1-amine]
Emin (human M4) (Human M4): 5%
pIC50 (Human M4): 8.59

c1cc(N2CCOCC2)nnc1NCC1CC12CCN(CC1CCOCC1)CC2 (centres unmarked) [Compound 85, 6-morpholino-N-[[6-(tetrahydropyran-4-ylmethyl)-6-azaspiro[2.5]octan-2-yl]methyl]pyridazin-3-amine]
Emin (human M4) (Human M4): 10%
pIC50 (Human M4): 5.92

Fc1ccc(Cl)c(-c2ccc(NCC3CC34CCN(Cc3ccccc3F)CC4)nn2)c1 (centres unmarked) [Compound 100, 6-(2-chloro-5-fluoro-phenyl)-N-[[6-[(2-fluorophenyl)methyl]-6-azaspiro[2.5]octan-2-yl]methyl]pyridazin-3-amine]
Emin (human M4) (Human M4): 2%
pIC50 (Human M4): 7.05

Cc1nn(C)cc1-c1ccc(NCC2CC23CCN(CC(C)C(C)(C)C)CC3)nn1 (centres unmarked) [Compound 10, 6-(1,3-dimethylpyrazol-4-yl)-N-[[6-(2,3,3-trimethylbutyl)-6-azaspiro[2.5]octan-2-yl]methyl]pyridazin-3-amine]
Emin (rat M4) (Rat M4): 3.57%
pIC50 (Rat M4): 7.32

Fc1cccc(CN2CCC3(CC2)CC3CNc2ccc(-c3cc(F)ccc3Cl)nn2)c1 (centres unmarked) [Compound 97, 6-(2-chloro-5-fluoro-phenyl)-N-[[6-[(3-fluorophenyl)methyl]-6-azaspiro[2.5]octan-2-yl]methyl]pyridazin-3-amine]
Emin (human M4) (Human M4): 3%
pIC50 (Human M4): 7.08

CC(=O)Nc1ccc(-c2ccc(NC[C@H]3CC34CCN(CC3CCCCC3)CC4)nn2)cc1 [Compound 125, N-[4-[6-[[(2S)-6-(cyclohexylmethyl)-6-azaspiro[2.5]octan-2-yl]methylamino]pyridazin-3-yl]phenyl]acetamide]
Emin (human M4) (Human M4): 4%
pIC50 (Human M4): 6.95

N#Cc1ccccc1CN1CCC2(CC1)CC2CNc1ccc(-c2cc(F)ccc2Cl)nn1 (centres unmarked) [Compound 98, 2-[[2-[[[6-(2-chloro-5-fluoro-phenyl)pyridazin-3-yl]amino]methyl]-6-azaspiro[2.5]octan-6-yl]methyl]benzonitrile]
Emin (human M4) (Human M4): 5%
pIC50 (Human M4): 6.28

Cc1nn(C)cc1-c1nnc(NCC2CC23CCN(CC2CCCCC2)CC3)c2ccccc12 (centres unmarked) [Compound 94, N-[[6-(cyclohexylmethyl)-6-azaspiro[2.5]octan-2-yl]methyl]-4-(1,3-dimethylpyrazol-4-yl)phthalazin-1-amine]
Emin (human M4) (Human M4): 5%
pIC50 (Human M4): 7.79

CC(C)(C)CCN1CCC2(CC1)CC2COc1ccc(-c2cc(F)ccc2Cl)nn1 (centres unmarked) [Compound 77, 1-(((6-(2-chloro-5-fluorophenyl)pyridazin-3-yl)oxy)methyl)-6-(3,3-dimethylbutyl)-6-azaspiro[2.5]octane]
Emin (rat M4) (Rat M4): 3%
pIC50 (Rat M4): 6.54

Cc1nn(C)cc1-c1nnc(NCC2CC23CCN(CC2CCOCC2)CC3)c2ccccc12 (centres unmarked) [Compound 93, 4-(1,3-dimethylpyrazol-4-yl)-N-[[6-(tetrahydropyran-4-ylmethyl)-6-azaspiro[2.5]octan-2-yl]methyl]phthalazin-1-amine]
Emin (human M4) (Human M4): 9%
pIC50 (Human M4): 8.34

Fc1ccc(Cl)c(-c2ccc(NCC3CC34CCN(Cc3ccccc3)CC4)nn2)c1 (centres unmarked) [Compound 101, N-[(6-benzyl-6-azaspiro[2.5]octan-2-yl)methyl]-6-(2-chloro-5-fluoro-phenyl)pyridazin-3-amine]
Emin (human M4) (Human M4): 3%
pIC50 (Human M4): 7.16

Cc1cnn(C)c1-c1ccc(NCC2CC23CCN(CC2CCOCC2)CC3)nn1 (centres unmarked) [Compound 74, 6-(2,4-dimethylpyrazol-3-yl)-N-[[6-(tetrahydropyran-4-ylmethyl)-6-azaspiro[2.5]octan-2-yl]methyl]pyridazin-3-amine]
Emin (rat M4) (Rat M4): 29.9%
IC50 (Rat M4; cells printed in μM, decrease of the EC80 acetylcholine response): > 10 µM

Cc1nn(C)cc1-c1nnc(NCC2CC23CCN(CC2CC4C=CC2C4)CC3)c2ccccc12 (centres unmarked) [Compound 96, N-[[6-(5-bicyclo[2.2.1]hept-2-enylmethyl)-6-azaspiro[2.5]octan-2-yl]methyl]-4-(1,3-dimethylpyrazol-4-yl)phthalazin-1-amine]
Emin (human M4) (Human M4): 5%
pIC50 (Human M4): 8.53

Cc1nn(C)cc1-c1ccc(NCC2CC23CCN(CC2CC4C=CC2C4)CC3)nn1 (centres unmarked) [Compound 9, N-[[6-(5-bicyclo[2.2.1]hept-2-enylmethyl)-6-azaspiro[2.5]octan-2-yl]methyl]-6-(1,3-dimethylpyrazol-4-yl)pyridazin-3-amine]
Emin (rat M4) (Rat M4): 3.98%
pIC50 (Rat M4): 7.92

CC(C)(C)/C=C/c1ccc(NCC2CC23CCN(CCC(C)(C)C)CC3)nn1 (centres unmarked) [Compound 91, 6-[(E)-3,3-dimethylbut-1-enyl]-N-[[6-(3,3-dimethylbutyl)-6-azaspiro[2.5]octan-2-yl]methyl]pyridazin-3-amine]
Emin (rat M4) (Rat M4): 5%
pIC50 (Rat M4): 6.39

Fc1ccc(CN2CCC3(CC2)CC3CNc2ccc(-c3cc(F)ccc3Cl)nn2)cc1 (centres unmarked) [Compound 99, 6-(2-chloro-5-fluoro-phenyl)-N-[[6-[(4-fluorophenyl)methyl]-6-azaspiro[2.5]octan-2-yl]methyl]pyridazin-3-amine]
Emin (human M4) (Human M4): 3%
pIC50 (Human M4): 7.05

Fc1ccc(Cl)c(-c2ccc(NC[C@@H]3CC34CCN(Cc3ccccn3)CC4)nn2)c1 [Compound 113, 6-(2-chloro-5-fluoro-phenyl)-N-[[(2R)-6-(2-pyridylmethyl)-6-azaspiro[2.5]octan-2-yl]methyl]pyridazin-3-amine]
Emin (human M4) (Human M4): 2%
pIC50 (Human M4): 7.05
